US5874471A, “Orthomolecular medical use of L-citrulline for vasoprotection, relaxative smooth muscle tone and cell protection” (priority 1997, dated 1999)
Where two headings read alike, the source gives them in different places.

Legend:
platelet activity = details: cited from earlier work; for total bleeding time: low-dose / small therapeutic doses orally, humans
migraine aura = details: inhalation of small amounts, some cases; cited from earlier work
osteoporosis = details: oral supplements in large amounts; cited from earlier work
hippocampal brain tissue = details: extracellular creatine increased by 3 mM; cited from earlier work
muscle fatigue = details: oral daily supplementation, healthy humans; cited from earlier work
[1] = test system: rabbit model of angioplasty; details: L-arginine hydrochloride 2.25% in drinking water; cited from earlier work
human platelets = details: cited from earlier work; for inhibition of L-arginine uptake into platelets: 300 μM extracellular concentration, L-arginine 30 μM
[2] = parenteral injection, rats; cited from earlier work
[3] = test system: human semen specimens with low motility; details: between 1.0 and 4.0 mM, in vitro; cited from earlier work
[4] = test system: cortical spreading depression; details: rat, in vivo; cited from earlier work
[5] = test system: spermatocytes of infertile men; details: 4 to 20 grams of arginine daily, oral; cited from earlier work
[6] = test system: renal vasodilatory responses; details: aged compared to young hypertensives; cited from earlier work
[7] = test system: uterine muscle strips from gravid rats; details: L-arginine added to extracellular fluid; cited from earlier work
[8] = test system: endothelium-dependent vasodilation; details: L-arginine infusion, humans with hypercholesterolemia; cited from earlier work
[9] = test system: hypercholesterolemic rabbit models; details: sixfold enrichment of dietary L-arginine; cited from earlier work
[10] = rat; cited from earlier work
apoptosis = details: L-arginine-deficient (10 μM) environment; cited from earlier work
[11] = test system: experimental diabetes mellitus; details: long-term oral administration in marked amounts; cited from earlier work
activated c-NOS = details: plasma L-arginine above normal fasting 75 to 90 μM; cited from earlier work
[12] = cited from earlier work
brain functions = assay: Mental alertness, intellectual performance and mental fatigue on L-citrulline; type: in vivo, human; details: 4.5 grams daily, 4 months
Description: (§1) The subject cited in Example 1 and Example 2 above subsequently undertook oral supplementation with 4.5 grams of L-citrulline daily in 2 divided doses (morning and nightly) of 1.8 grams (in 2 capsules) and 2.7 grams (in 3 capsules) for 4 months. They continued their usual food intake. At the end of the 4-month period of supplementation with 4.5 grams daily, […] 9-hour overnight fasting plasma concentration of L-arginine measured at 102.3 μM, assayed in plasma within 30 minutes of venous blood sampling. This increased fasting plasma level contrasted from their lower normal fasting values of 83.0±1.1 μM measured months before, an increment about 20 μM greater.
(§2) The apparent nootropic effects from oral intake of L-citrulline are consistent with the inventive beneficial effects of L-citrulline as exogenous precursor in order to improve brain functions that may be mediated by enhanced L-arginine, creatine, and phosphocreatine stores within the central nervous system.

[13] = Total forearm bleeding time during oral L-citrulline; type: in vivo, human
Description: The same subject that was studied in Example 1 was studied by total bleeding time determinations before and during ingestion of daily doses of L-citrulline, in two divided subdoses. Forearm bleeding times were done by 3 to 5 mm cuts about 1 mm deep made perpendicular to the fold of the elbow during template methodology and a sphygmomanometer cuff maintained near 40 mm Hg pressure. Control bleeding times were 51/2 minutes. Bleeding time rose to 131/2 minutes after 2 days of ingestion of 8.5 grams daily. Bleeding time was prolonged at 13 minutes after 4 weeks of ingestion of 5.4 grams of L-citrulline daily in 2 divided doses.

migraine pains = assay: Migraine pain with oral L-citrulline; type: in vivo, human
Description: […] Their body weight was 59 kg. The subject gave a history of migraine pains with and without aura for about 15 years. Currently, the migraine pains were recurring about once to a few times weekly. Their parent had experienced migraine headaches for many years.
Shortly after the onset of a severe headache attack, the subject ingested 2.7 grams of L-citrulline, followed by another 2.7 grams about 1 hour later.
(§3) Subsequently, the person cited in Example 4 followed an oral regimen of 3.6 grams of L-citrulline daily in two subdoses of 1.8 grams (morning and evening) for seven weeks. The frequency and intensity of the migraine pain episodes were reduced over this interval.

[14] = Plasma ultrafiltrate L-arginine level after oral L-citrulline (colorimetric assay); type: in vivo, human
Description: The one FIGURE contains graphs of plasma ultrafiltrate levels of L-arginine in the fasting state (9-10 hours) related to the daily amounts of L-citrulline ingested in two divided doses. Also depicted are levels 2-hours after ingestion of morning doses of L-citmulline (EXAMPLE 1).
A novel colorimetric method for the quantitative assay of free L-arginine in blood plasma was developed. The method measures the color product from monosubstituted guanidines without and with L-arginase incubation to destroy the arginine and the potential guanido color product that would be derived from L-arginine. The photometric decrease in guanido color product measures specifically the concentration of L-arginine. The L-arginine methodology was applied to ultrafiltrates of blood plasma after ultrafiltrations of separated plasma samples were done at 4° Celsius.
Blood plasma levels after 9 to 10 hours of overnight fasting averaged 83.0±1.1 μM (mean±SD of 3 determinations). Two hours after ingestion of 3.0 grams of L-citrulline in capsular form, plasma L-arginine level rose by […] to 132.7 μM. Overnight fasting plasma levels of L-arginine measured 125.2, 98.1, 90.8, 114.2, and 120.0 μM after ingestion of L-citrulline for 6 days at 6.0 grams, for 13 days at 2.4 grams, for 6 days at 3.4 grams, for 7 days at 6.8 grams, and for 2 days at 8.5 grams, respectively, in 2 divided doses (morning and nightly).
as §1

[15] = rat, in vivo; cited from earlier work
lacunar infarction = assay: Recurrence of symptomatic lacunar infarction on daily citrulline; type: in vivo, human; details: 4.5 grams daily in two subdoses for many months
Source text: Aspirin in small daily doses is commonly recommended as antiplatelet and antithrombotic agent in cardiovascular disease, particularly for the secondary prevention of coronary artery thrombosis and myocardial infarction, and for cerebrovascular ischemic manifestations such as lacunar infarctions. This subject had experienced, five-years earlier, an acute episodic event of symptomatic lacunar infarction with virtual recovery.

[16] = Tolerability of oral L-citrulline (symptoms, blood count, serum chemistry); type: in vivo, human
Source text: as §3, §1, §2

[17] = in vivo; cited from earlier work
[18] = 4-month regimen of 4.5 grams daily

CC(=O)Oc1ccccc1C(=O)O [aspirin, acetylsalicylic acid]
total bleeding time (platelet activity): prolonged | total bleeding time (platelet activity; listed as acetylsalicylic acid (aspirin)): prolongs the total bleeding time | platelet activity (platelet activity; low-dose intake in humans): inhibits platelet activity

CCCCCON=O [amyl nitrite]
migraine aura (migraine aura): temporarily reversed migraine aura in some cases

O=C(O)O [calcium carbonate]
skeletal bone loss in osteoporosis (osteoporosis): decreased the skeletal bone loss

CN(CC(=O)O)C(=N)N [creatine]
ATP levels (hippocampal brain tissue): without change in ATP levels | anoxia-induced neuronal damage (hippocampal brain tissue): attenuated | neurocyte viability after anoxic periods (hippocampal brain tissue): greater neurocyte viabilities | neuronal free creatine and phosphocreatine levels (hippocampal brain tissue): large increases | muscle fatigue with physical exercise (muscle fatigue): lessened muscle fatigue | muscle stores of free creatine and phosphocreatine (muscle fatigue): greater muscle stores

Cl.N=C(N)NCCC[C@H](N)C(=O)O [L-arginine hydrochloride]
arterial thickening [1]: reduced thickening | increase of plasma arginine levels [1]: about 2.6 times | neoendothelium-dependent arterial muscle relaxation [1]: enhanced neoendothelium-dependent arterial muscle relaxation

NC(=O)CC[C@H](N)C(=O)O [L-glutamine]
inhibition of L-arginine uptake into platelets (human platelets): inhibitory

N=C(N)NCCC[C@H](N)C(=O)O [L-arginine]
time for plasma and tissue concentrations to return to normal [2]: 2 to 3 h | sperm motility [3]: enhances sperm motility in a concentration-dependent manner | oligemic vasoconstriction following cortical spreading depression [4]: reduces the oligemic vasoconstriction | total sperm counts and motility rates [5]: may improve total sperm counts and motility rates | renal vasodilatory responses [6]: blunted in aged compared to young hypertensives | muscle relaxation and quiescence [7]: dose-dependent muscle relaxation, and muscle quiescence | impaired endothelium-dependent vasodilation [8]: corrected | endothelial adhesiveness and atherogenesis [9]: markedly inhibits endothelial adhesiveness and atherogenesis | increase in plasma arginine levels [9]: twofold increase | nitric oxide-dependent vasodilation [9]: improves nitric oxide-dependent vasodilation | brain tissue arginine level relative to plasma levels [10]: 20 to 30% | protection from apoptosis (apoptosis): protects cells from apoptosis | glomerular hyperfiltration and abnormal filtration fraction hemodynamics [11]: prevents the glomerular hyperfiltration | proteinuria [11]: ameliorates the proteinuria | endothelial nitric oxide production (activated c-NOS): augments endothelial nitric oxide production | Km (human platelets; read-out: apparent Km for uptake into human platelets): 26 ± 4 µM | time to return to near fasting values ([12]; 24.8 grams L-arginine, normal adults): 3 h | peak plasma arginine relative to fasting values ([12]; 24.8 grams L-arginine, fasting 90±6 μM): about 3.6 times | plasma citrulline levels ([12]; oral 3-gram single doses of arginine, healthy humans): without a change in plasma citrulline levels | plasma arginine levels ([12]; oral 3-gram single doses, healthy humans): raises plasma arginine levels acutely | time of peak plasma arginine ([12]; single protein meal of about 30 to 50 grams (about 1 to 2 grams arginine)): 2 to 3 h | time to return to near fasting levels ([12]; single protein meal of about 30 to 50 grams): 5 to 6 h

NC(=O)NCCC[C@H](N)C(=O)O [L-citrulline]
mental alertness and intellectual performance (brain functions): enhanced | mental fatigue (brain functions): less mental fatigue | bleeding time ([13]; after 2 days of 8.5 grams daily, control 51/2 minutes): 131/2 | prolongation of total bleeding time ([13]; daily doses of 5.4 grams to 8.5 grams): about two-fold | migraine pain intensity and duration (migraine pains; 2.7 grams at onset plus 2.7 grams about 1 hour later): markedly lessened in intensity and in duration | nausea during migraine attack (migraine pains; 2.7 grams plus 2.7 grams about 1 hour later): Much less nausea | frequency and intensity of migraine pain episodes (migraine pains; 3.6 grams daily in two subdoses, seven weeks): reduced | increment in fasting plasma L-arginine ([14]; 4 months at 4.5 grams daily vs 83.0±1.1 μM before): about 20 μM | metabolic adaptation to long-continued supplementation ([14]; 4 months, 4.5 grams daily): no significant metabolic adaptation | elevation of plasma L-arginine versus equivalent L-arginine or protein meals ([14]; comparison with literature): more efficient and longer lasting | blood plasma levels of L-arginine after overnight fasting (general statement) ([14]; daily dosage in two divided subdoses, 9 to 10 hours fasting): greater blood plasma levels of L-arginine even after overnight fasting | blood plasma concentrations of free L-arginine (general statement) ([14]; single oral doses of 3.0 grams or more in capsules): promptly raised to much higher levels | plasma L-arginine level rise ([14]; two hours after 3.0 grams L-citrulline in capsules, person, 102 kg, fasting 83.0±1.1 μM before): 62.4% | liver uptake in portal venous blood [15]: Without appreciable liver uptake | recurrence of lacunar infarction (lacunar infarction): No manifestations of recurrence | adverse side-effects ([16]; 3.6 grams daily for seven weeks, person): No adverse side-effects | adverse symptoms [16, 18]: No adverse symptoms | complete blood count and blood serum chemistry tests [16, 18]: remained normal | adverse symptoms or untoward signs ([16]; Example 1 study, several weeks): No adverse symptoms or untoward signs | blood-brain barrier passage [17]: readily passes the blood-brain barrier

NCCCC[C@H](N)C(=O)O [L-lysine]
inhibition of L-arginine uptake into platelets (human platelets): inhibitory

NCCC[C@H](N)C(=O)O [L-ornithine]
inhibition of L-arginine uptake into platelets (human platelets): inhibitory
